Source: US20070049593A1 (priority 2004, published 2007)

Molecular target: T1, HCV polymerase (Hepatitis C virus genotype 1b, UniProt P26663)
T1 construct: a region encoding NS5B (J Virol 1991 March, 65(3), 1105-13, 544 amino acids after deletion of 47 amino acids on the C-terminal); 6xHis (C); made in house; host or cells: Escherichia coli
Assay: biochemical
Parameters: species or system HCV BK strain
How it was run: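 Recombinant HCV BK-strain NS5B (C-terminal 47 aa deleted, His6-tagged, E. coli), 0.5 μg/ml, run with 5 μg/ml in vitro-transcribed RNA template (polyU/3′X), ATP/GTP/CTP 50 μM, UTP 2 μM plus [3H]UTP, pH 7.5, 25° C, 90 min. TCA-precipitated RNA counted by scintillation; IC50 from activity with vs without compound.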

T1 sequence (P26663 2420-2963): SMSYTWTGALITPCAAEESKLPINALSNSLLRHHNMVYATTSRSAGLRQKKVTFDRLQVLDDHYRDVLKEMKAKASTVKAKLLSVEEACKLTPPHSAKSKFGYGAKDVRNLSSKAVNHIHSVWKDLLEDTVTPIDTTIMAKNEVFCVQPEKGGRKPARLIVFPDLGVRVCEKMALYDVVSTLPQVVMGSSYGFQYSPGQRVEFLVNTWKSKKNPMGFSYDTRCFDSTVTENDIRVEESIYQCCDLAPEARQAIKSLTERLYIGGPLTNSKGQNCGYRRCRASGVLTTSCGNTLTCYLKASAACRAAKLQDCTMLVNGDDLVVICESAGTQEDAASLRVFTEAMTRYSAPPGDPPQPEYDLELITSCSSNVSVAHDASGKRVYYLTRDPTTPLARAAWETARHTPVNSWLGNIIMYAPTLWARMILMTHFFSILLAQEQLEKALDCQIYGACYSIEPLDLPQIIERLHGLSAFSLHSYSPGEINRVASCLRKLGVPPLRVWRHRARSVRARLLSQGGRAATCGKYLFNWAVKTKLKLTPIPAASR

Compound | IC50 [nM]
Cn1c(C(C)(C)NC(=O)c2ccc3c(C4CCCCC4)c4n(c3c2)CCOc2ccccc2-4)nc2ccc(C(=O)O)cc21 [Example 2-337, 2-{1-[(12-cyclohexyl-6,7-dihydro-5-oxa-7a-azadibenzo[a,e]azulene-9-carbonyl)amino]-1-methylethyl}-3-methyl-3H-benzimidazole-5-carboxylic acid] | < 100
COC(=O)[C@H](Cc1ccc(NC(C)=O)cc1)NC(=O)c1ccc2c(C3CCCCC3)c3n(c2c1)CCOc1cc(OC)ccc1-3 [Example 2-338, methyl (S)-3-(4-acetylaminophenyl)-2-[(12-cyclohexyl-3-methoxy-6,7-dihydro-5-oxa-7a-azadibenzo[a,e]azulene-9-carbonyl)amino]propionate] | < 100
COC(=O)[C@H](Cc1ccc(NS(C)(=O)=O)cc1)NC(=O)c1ccc2c(C3CCCCC3)c3n(c2c1)CCOc1cc(OC)ccc1-3 [Example 2-339, methyl (S)-2-[(12-cyclohexyl-3-methoxy-6,7-dihydro-5-oxa-7a-azadibenzo[a,e]azulene-9-carbonyl)amino]-3-(4-methanesulfonylaminophenyl)propionate] | < 100
COc1ccc2c(c1)OCCn1c-2c(C2CCCCC2)c2ccc(C(=O)N[C@@H](Cc3ccc(NC(C)=O)cc3)C(=O)O)cc21 [Example 2-340, (S)-3-(4-acetylaminophenyl)-2-[(12-cyclohexyl-3-methoxy-6,7-dihydro-5-oxa-7a-azadibenzo[a,e]azulene-9-carbonyl)amino]propionic acid] | < 100
COc1ccc2c(c1)OCCn1c-2c(C2CCCCC2)c2ccc(C(=O)N[C@@H](Cc3ccc(NS(C)(=O)=O)cc3)C(=O)O)cc21 [Example 2-341, (S)-2-[(12-cyclohexyl-3-methoxy-6,7-dihydro-5-oxa-7a-azadibenzo[a,e]azulene-9-carbonyl)amino]-3-(4-methanesulfonylaminophenyl)propionic acid] | < 100
COCCCN(CCN1CCCCC1)c1cccc2c1OCCn1c-2c(C2CCCCC2)c2ccc(C(=O)O)cc21 [Example 2-342] | < 100
CN(C)Cc1ccccc1-c1cccc2c1OCCn1c-2c(C2CCCCC2)c2ccc(C(=O)O)cc21 [Example 2-343, 12-cyclohexyl-4-(2-dimethylaminomethylphenyl)-6,7-dihydro-5-oxa-7a-azadibenzo[a,e]azulene-9-carboxylic acid] | < 100
O=C(O)c1ccc2c(C3CCCCC3)c3n(c2c1)CCOc1c-3cccc1N1CCCCC1=O [Example 2-344, 12-cyclohexyl-4-(2-oxopiperidin-1-yl)-6,7-dihydro-5-oxa-7a-azadibenzo[a,e]azulene-9-carboxylic acid] | < 100
O=C(O)c1ccc2c(C3CCCCC3)c3n(c2c1)CCOc1c-3cccc1N1CCCCC1 [Example 2-345, 12-cyclohexyl-4-(piperidin-1-yl)-6,7-dihydro-5-oxa-7a-azadibenzo[a,e]azulene-9-carboxylic acid] | < 100
COc1ccc2c(c1)OCCn1c-2c(C2CCCCC2)c2ccc(C(=O)NC(C)(C)c3nc4ccc(C(=O)N(C)C)cc4[nH]3)cc21 [Example 2-346, N-[1-(6-dimethylcarbamoyl-1H-benzimidazol-2-yl)-1-methylethyl]-12-cyclohexyl-3-methoxy-6,7-dihydro-5-oxa-7a-azadibenzo[a,e]azulene-9-carboxamide] | < 100
COc1ccc2c(c1)OCCn1c-2c(C2CCCCC2)c2ccc(C(=O)NC(C)(C)c3nc4cc(C(=O)O)c(OC)cc4[nH]3)cc21 [Example 2-347, 2-{1-[(12-cyclohexyl-3-methoxy-6,7-dihydro-5-oxa-7a-azadibenzo[a,e]azulene-9-carbonyl)amino]-1-methylethyl}-6-methoxy-1H-benzimidazole-5-carboxylic acid] | < 100
COc1ccc2c(c1)OCCn1c-2c(C2CCCCC2)c2ccc(C(=O)NC(C)(C)c3nc4ccccc4o3)cc21 [Example 2-348, N-[1-(benzoxazol-2-yl)-1-methylethyl]-12-cyclohexyl-3-methoxy-6,7-dihydro-5-oxa-7a-azadibenzo[a,e]azulene-9-carboxamide] | < 100
COC(=O)c1ccc(NC(=O)C(C)(C)NC(=O)c2ccc3c(C4CCCCC4)c4n(c3c2)CCOc2cc(OC)ccc2-4)cc1 [Example 2-349, methyl 4-{2-[(12-cyclohexyl-3-methoxy-6,7-dihydro-5-oxa-7a-azadibenzo[a,e]azulene-9-carbonyl)amino]-2-methylpropionylamino}benzoate] | < 100
COc1ccc2c(c1)OCCn1c-2c(C2CCCCC2)c2ccc(C(=O)NC(C)(C)C(=O)Nc3ccc(C(=O)O)cc3)cc21 [Example 2-350, 4-{2-[(12-cyclohexyl-3-methoxy-6,7-dihydro-5-oxa-7a-azadibenzo[a,e]azulene-9-carbonyl)amino]-2-methylpropionylamino}benzoic acid] | < 100
CC(C)(NC(=O)c1ccc2c(C3CCCCC3)c3n(c2c1)CCOc1ccccc1-3)c1nc2ccccc2n1CCO [Example 2-351, N-{1-[1-(2-hydroxyethyl)-1H-benzimidazol-2-yl]-1-methylethyl}-12-cyclohexyl-6,7-dihydro-5-oxa-7a-azadibenzo[a,e]azulene-9-carboxamide] | < 100
COC(=O)[C@H](Cc1cccc(C(F)(F)F)c1)NC(=O)c1ccc2c(C3CCCCC3)c3n(c2c1)CCOc1cc(OC)ccc1-3 [Example 2-352, methyl (S)-2-[(12-cyclohexyl-3-methoxy-6,7-dihydro-5-oxa-7a-azadibenzo[a,e]azulene-9-carbonyl)amino]-3-(3-trifluoromethylphenyl)propionate] | < 100
COC(=O)C(Cc1cccc(O)c1)NC(=O)c1ccc2c(C3CCCCC3)c3n(c2c1)CCOc1cc(OC)ccc1-3 (stereo not drawn) [Example 2-353, methyl 2-[(12-cyclohexyl-3-methoxy-6,7-dihydro-5-oxa-7a-azadibenzo[a,e]azulene-9-carbonyl)amino]-3-(3-hydroxyphenyl)propionate] | < 100
COc1ccc2c(c1)OCCn1c-2c(C2CCCCC2)c2ccc(C(=O)N[C@@H](Cc3cccc(C(F)(F)F)c3)C(=O)O)cc21 [Example 2-354, (S)-2-[(12-cyclohexyl-3-methoxy-6,7-dihydro-5-oxa-7a-azadibenzo[a,e]azulene-9-carbonyl)amino]-3-(3-trifluoromethylphenyl)propionic acid] | < 100
COc1ccc2c(c1)OCCn1c-2c(C2CCCCC2)c2ccc(C(=O)NC(Cc3cccc(O)c3)C(=O)O)cc21 (stereo not drawn) [Example 2-355, 2-[(12-cyclohexyl-3-methoxy-6,7-dihydro-5-oxa-7a-azadibenzo[a,e]azulene-9-carbonyl)amino]-3-(3-hydroxyphenyl)propionic acid] | < 100
COC(=O)[C@H](Cc1ccncc1)NC(=O)c1ccc2c(C3CCCCC3)c3n(c2c1)CCOc1cc(OC)ccc1-3 [Example 2-356, methyl (S)-2-[(12-cyclohexyl-3-methoxy-6,7-dihydro-5-oxa-7a-azadibenzo[a,e]azulene-9-carbonyl)amino]-3-(pyridin-4-yl)propionate] | < 100
O=C(O)c1ccc2c(C3CCCCC3)c3n(c2c1)CCOc1c-3cccc1N(CC(=O)N1CCCOCC1)CC(=O)N1CCCOCC1 [Example 2-357, 4-{bis[2-(1,4-oxazepan-4-yl)-2-oxoethyl]amino}-12-cyclohexyl-6,7-dihydro-5-oxa-7a-azadibenzo[a,e]azulene-9-carboxylic acid] | < 100
